In patent US20040063716A1, “Cholesterol biosynthesis inhibitors containing as the active ingredient tricyclic spiro compounds” (priority 2000, published 2004):

Assays:
Assay type in all cases: biochemical
trypsin = biological target: T1, trypsin (Bos taurus, UniProt P00760); assay: Inhibitory activity for trypsin; conditions: FXa versus trypsin
T1 construct: gene PRSS1
T1 sequence (P00760 24-246): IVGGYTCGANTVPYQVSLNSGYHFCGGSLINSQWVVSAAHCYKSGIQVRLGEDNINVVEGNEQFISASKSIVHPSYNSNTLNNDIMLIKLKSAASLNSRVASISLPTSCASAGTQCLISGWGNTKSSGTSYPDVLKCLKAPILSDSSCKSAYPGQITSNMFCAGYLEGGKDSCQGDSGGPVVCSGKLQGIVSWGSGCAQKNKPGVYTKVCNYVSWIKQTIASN

human FXa = biological target: T2, human FXa (Homo sapiens, UniProt P00742); assay: Measurement of human FXa inhibitory action (chromogenic substrate S-2222); conditions: human FXa 0.019 U/ml, S-2222 0.4 mM, 37° C., pH 7.5
T2 construct: purchased Enzyme Research Laboratories, Inc
Protocol: In vitro FXa inhibitory activity is measured in accordance with the method of Kettner et al. (Journal of Biological Chemistry, vol. 265, pages 18289 to 18297, 1990). To be more specific, human FXa (product of Enzyme Research Laboratories, Inc., 0.019 U/ml) is mixed with a test compound diluted with dimethylsulfoxide (DMSO) at various concentrations and a synthetic substrate S-2222 (Chromogenix AB, 0.4 mM). The mixtures are incubated at 37° C. in Tris-hydrochloric acid buffer (pH 7.5) while the absorbance at 405 nm is measured continuously. To calculate the FXa inhibitory activity of the test compound, the initial reaction velocity is compared with the value for a control containing no test compound. It should be noted that the FXa inhibitory activity of the test compound is generally indicated as IC50.

human plasma = assay: Measurement of intrinsic coagulation time (APTT) in vitro
Protocol: Activated partial thromboplastin time (APTT) is measured in the presence of the test compounds diluted at various concentrations. A test compound diluted with DMSO at various concentrations is mixed with human plasma and APTT reagent. The mixture is incubated at 37° C. for 2 minutes; calcium chloride (25 mM) is added to the mixture; and the coagulation time is thereafter measured. It should be noted that the anticoagulant activity of the test compound is described in terms of the concentration required to double the coagulation time for the case where no test compound is added.

T2 sequence (P00742 235-488 limits assumed): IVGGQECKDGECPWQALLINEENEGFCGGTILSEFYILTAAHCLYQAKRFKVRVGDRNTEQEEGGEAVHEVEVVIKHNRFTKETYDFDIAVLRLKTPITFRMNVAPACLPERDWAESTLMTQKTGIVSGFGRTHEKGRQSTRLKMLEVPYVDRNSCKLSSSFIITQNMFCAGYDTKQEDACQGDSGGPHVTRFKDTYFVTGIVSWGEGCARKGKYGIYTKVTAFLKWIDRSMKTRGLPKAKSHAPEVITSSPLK
T2 sequence (P00742 41-179 partner limits assumed): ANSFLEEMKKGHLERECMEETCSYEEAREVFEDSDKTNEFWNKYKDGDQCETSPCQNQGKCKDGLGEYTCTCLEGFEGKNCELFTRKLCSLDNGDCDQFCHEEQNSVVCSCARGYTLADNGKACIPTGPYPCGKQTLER

selectivity for trypsin (trypsin) | IC50 (human FXa) [nM] | SMILES | Concentration required to double coagulation time (human plasma) [µM]
remarkably high selectivity | – | COCC12CN(S(=O)(=O)c3ccc4cc(Cl)ccc4c3)CC(=O)N1CC1(CCN(c3ccncc3)CC1)O2 (single isomer, unassigned; (-)) [Compound A, (−)-1,4-diaza-4-(6-chloronaphthalen-2-ylsulfonyl)-6-(methoxymethyl)-7-oxa-1′-(4-pyridyl)spiro[bicyclo[4.3.0]nonane-8,4′-piperidin]-2-one] | –
– | 1.8 | COCC12CN(S(=O)(=O)C=Cc3ccc(Cl)s3)CC(=O)N1CC1(CCN(c3ccncc3)CC1)O2 (centres unmarked) [Example 684, 1,4-Diaza-4-[2-(5-chlorothiophen-2-yl)ethenesulfonyl]-6-(methoxymethyl)-7-oxa-1′-(4-pyridyl)spiro[bicyclo[4.3.0]nonane-8,4′-piperidin]-2-one] | –
– | 5.4 | O=C1CN(S(=O)(=O)c2ccc3cc(Cl)ccc3c2)CC2OC3(CCN(c4ccncn4)CC3)CN12 (centres unmarked) [Example 10, 1,4-Diaza-4-(6-chloronaphthalen-2-ylsulfonyl)-7-oxa-1′-(4-pyrimidinyl)spiro[bicyclo[4.3.0]nonane-8,4′-piperidin]-2-one] | –
– | 3.2 | COCC12CN(S(=O)(=O)c3ccc4cc(Cl)ccc4c3)CC(=O)N1CC1(CCN(c3ccncc3)CC1)O2 (centres unmarked) [Example 1, 1,4-Diaza-4-(6-chloronaphthalen-2-ylsulfonyl)-6-(methoxymethyl)-7-oxa-1′-(4-pyridyl)spiro[bicyclo[4.3.0]nonane-8,4′-piperidin]-2-one] | –
– | 2.9 | O=C(O)COCC12CN(S(=O)(=O)c3ccc4cc(Cl)ccc4c3)CC(=O)N1CC1(CCN(c3ccncc3)CC1)O2 (centres unmarked) [Example 5, 1,4-Diaza-4-(6-chloronaphthalen-2-ylsulfonyl)-6-(carboxymethoxymethyl)-7-oxa-1′-(4-pyridyl)spiro[bicyclo[4.3.0]nonane-8,4′-piperidin]-2-one] | 0.43
– | 5.3 | O=C1CN(S(=O)(=O)C=Cc2ccc(Cl)s2)CC2NC3(CCN(c4ccncc4)CC3)CN12 (centres unmarked) [Example 628, 1,4,7-Triaza-4-[2-(5-chlorothiophen-2-yl)ethenesulfonyl]-1′-(4-pyridyl)spiro[bicyclo[4.3.0]nonane-8,4′-piperidin]-2-one] | –
– | 2.8 | O=C1CN(S(=O)(=O)c2ccc3cc(Cl)ccc3c2)CC2(CN3CCOCC3)OC3(CCN(c4ccncc4)CC3)CN12 (centres unmarked) [Example 61, 1,4-Diaza-4-(6-chloronaphthalen-2-ylsulfonyl)-6-(morpholinomethyl)-7-oxa-1′-(4-pyridyl)spiro[bicyclo[4.3.0]nonane-8,4′-piperidin]-2-one] | –
– | 1.8 | COCC12CN(S(=O)(=O)c3ccc4nc(Cl)ccc4c3)CC(=O)N1CC1(CCN(c3ccncc3)CC1)O2 (centres unmarked) [Example 770, 1,4-Diaza-4-(2-chloroquinolin-6-ylsulfonyl)-6-(methoxymethyl)-7-oxa-1′-(4-pyridyl)spiro[bicyclo[4.3.0]nonane-8,4′-piperidin]-2-one] | –
– | 1.5 | CCOC(=O)C12CN(S(=O)(=O)c3ccc4cc(Cl)ccc4c3)CC(=O)N1CC1(CCN(c3ccncc3)CC1)O2 (centres unmarked) [Example 25, 1,4-Diaza-4-(6-chloronaphthalen-2-ylsulfonyl)-6-(ethoxycarbonyl)-7-oxa-1′-(4-pyridyl)spiro[bicyclo[4.3.0]nonane-8,4′-piperidin]-2-one] | –
– | 1.8 | COCC12CN(S(=O)(=O)C=Cc3ccc(Cl)s3)CC(=O)N1CC1(CCN(c3ccncc3)CC1)N2 (centres unmarked) [Example 712, 1,4,7-Triaza-4-[2-(5-chlorothiophen-2-yl)ethenesulfonyl]-6-(methoxymethyl)-1′-(4-pyridyl)spiro[bicyclo[4.3.0]nonane-8,4′-piperidin]-2-one] | –
